Measurements as given in patent publication US5804576A, “Derivatives of 5-androsten-17-ones and 5-androstan-17-ones” (Research Corporation Technologies, Inc., priority 1986, dated 1998).

Experiments:
[1] = target: T1, purified bovine adrenal G6PDH (Bos taurus, UniProt F1MMK2); assay: Inhibition of purified bovine adrenal G6PDH; type: biochemical; conditions: for G6PDH Inhibition relative to DHEA: Table 3, DHEA = 1×; for inhibition at 0.1 µM / inhibition at 1 µM / inhibition at 10 µM: read-out: Percent Inhibition (G6PDH)
T1 construct: full-length, wild type, no tag
Excerpt: The compounds listed below are screened as inhibitors of purified bovine adrenal G6PDH activity as one predictor of cancer preventive action. The assay for testing the inhibition of purified bovine adrenal G6PDH is according to the procedure by Oertel, G. W. and Rebelein, I. in Biochem. Biophys. Acta, 184, 459-460 (1969). The results are given below in Table I:
Both of the above tests, i.e., the inhibition of mammalian glucose-6-phosphate dehydrogenase (G6PDH) and the inhibition of tumor promoter (TPA) stimulation of ^3 H-thymidine incorporation in mouse epidermis are recognized as indicators of cancer prophylactic activity. The following Table compares the efficacy of representative compounds of the present invention in these two tests with that of DHEA: […]

[2] = test system: TPA (Tumor Promoter) Stimulation of Mouse Epidermal DNA; assay: Inhibition of TPA stimulation of mouse epidermal DNA synthesis (3H-thymidine incorporation), oral; type: in vivo, mouse (ICR male); conditions: Table 3; DHEA = 1×; oral
Excerpt: Synthesis rate by orally administered steroids.
The inhibition of tumor promoter stimulation of mouse epidermal DNA synthesis rate by steroids may also contribute to cancer preventive activity. The following assay is used:
ICR male mice (7-9 weeks old) were shaved on the back 1-2 days before use. Only mice showing no hair regrowth were used. Animals were orally intubated with a particular steroid suspended by homogenization in sesame oil or with sesame oil alone (controls). One hour later TPA (10 μg in 0.2 ml of acetone) or acetone vehicle was applied topically to the shaved skin. Twenty hours later, mice were injected i.p. with 60 μCi of ^3 H-thymidine 20 minutes before sacrifice. The animals were killed by cervical dislocation and the residual hair was removed with a depilatory agent. Epidermal scrapings were prepared according to the procedures of Hennings et al. (Cancer Res. 28, 53, 1968), homogenized in distilled water at 4° C., and the macromolecules precipitated with 0.4N trichloroacetic acid (TCA). Following 6 washes with absolute ethanol at room temperature, the nucleic acids were hydrolyzed with 0.5N TCA at 70° C. for 5 minutes. The hydrolysate (0.2 ml aliquots) were counted in an Intertechnique scintillation counter and assayed for DNA by the diphenylamine reaction.
The data are expressed as counts per minute (cpm) of tritium per μg of DNA.
A similar oral dose-response experiment with compound 16 and DHEA was performed.
Both of the above tests, i.e., the inhibition of mammalian glucose-6-phosphate dehydrogenase (G6PDH) and the inhibition of tumor promoter (TPA) stimulation of ^3 H-thymidine incorporation in mouse epidermis are recognized as indicators of cancer prophylactic activity. The following Table compares the efficacy of representative compounds of the present invention in these two tests with that of DHEA:
(§1) Male ICR mice were orally intubated with steroid suspended in sesame oil (0.5 ml/mouse) at the indicated dose. Mice not receiving steroid were given sesame oil alone. One hour later mice received topical application of TPA and 20 hours later the rate of ^3 H-thymidine incorporation into the epidermis was determined as described in Table 4.
as §1, with “TPA,” for “TPA”

[3] = Anti-obesity test (body weight, food consumption); type: in vivo, mouse (male A/J); conditions: Table 14; DHEA = 1×
Protocol: Male A/J mice (5 weeks old) were obtained from the Jackson Laboratory and were housed in polycarbonate cages (5 mice/cage) in animal quarters maintained at 24°±1° C. with 12 hours of light and 12 hours of darkness each day. One week after arrival, the mice were placed on a chow diet containing varying concentrations of DHEA or other steroid. Animals were weighed weekly; food consumption was determined weekly by subtracting the amount of food remaining in the cage from the amount added.
Male A/J (5 weeks old) were obtained from the Jackson Laboratory and were housed in polycarbonate cages (5 mice/cage) in animal quarters maintained at 24°±1° C. with 12 hours of light and 12 hours of darkness each day. One week after arrival, the mice were placed on a diet containing either DHEA, 19, or without steroid. Animals were weighed weekly. The concentration of DHEA or 19 used in the food was 0.54%.
Male A/J mice (5 weeks old) were obtained from the Jackson Laboratory and were housed in polycarbonate cages (5 mice/cage) in animal quarters maintained at 24°±1° C. with 12 hours of light and 12 hours of darkness each day. One week after arrival, the mice were placed on a show diet containing DHEA, 16, or 21 at 0.36%. Animals were weighed weekly.

[4] = test system: C57BL/KsJ-db/db mice; assay: Anti-hyperglycemic activity (blood glucose); type: in vivo, mouse (C57BL/KsJ-db/db); conditions: Table 15; DHEA = 1×
Protocol: C57BL/KsJ-db/db 8 week old female mice were obtained and housed in polycarbonate cages in animal quarters maintained at 24° C. with 12 h of light and 12 h of darkness each day.
Mice were placed on a control chow or a chow diet containing either 0.4% DHEA or 0.2% of compound 16.
For determination of blood glucose levels, mice were bled from the orbital sinus using a heparinized capillary tube. 0.2 ml of blood was added to 1.8 ml of water to hemolyze the blood and glucose concentration was determined using the glucose oxidase assay.

T1 sequence (F1MMK2 31-70): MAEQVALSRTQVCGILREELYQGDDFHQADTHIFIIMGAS
T1 sequence (F1MMK2 101-575): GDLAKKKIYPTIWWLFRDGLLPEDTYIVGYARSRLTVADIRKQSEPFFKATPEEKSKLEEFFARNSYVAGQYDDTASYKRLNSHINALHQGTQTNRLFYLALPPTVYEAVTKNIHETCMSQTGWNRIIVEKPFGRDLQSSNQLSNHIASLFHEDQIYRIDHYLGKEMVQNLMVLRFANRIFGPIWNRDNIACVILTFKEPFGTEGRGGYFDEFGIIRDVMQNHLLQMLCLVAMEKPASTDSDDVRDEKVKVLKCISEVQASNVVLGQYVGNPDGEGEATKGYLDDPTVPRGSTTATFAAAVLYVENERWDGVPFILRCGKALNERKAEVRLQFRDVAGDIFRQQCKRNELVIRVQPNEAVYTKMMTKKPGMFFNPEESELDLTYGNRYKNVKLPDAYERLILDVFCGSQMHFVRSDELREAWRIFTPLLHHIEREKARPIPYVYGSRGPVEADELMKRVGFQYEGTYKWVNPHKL

## C[C@H]1CC[C@@]2(C)C(=CC[C@@H]3[C@@H]2CC[C@]2(C)C(=O)CC[C@@H]32)C1 [drawing 87]
[1]
  G6PDH Inhibition relative to DHEA: ~ 1 ×
[2]
  Inhibition of TPA Effect on Epidermis Following Oral Administration, relative to DHEA: ~ 3 ×

## C[C@]12CC[C@H](Cl)CC1=CC[C@@H]1[C@@H]2CC[C@]2(C)C(=O)CC[C@@H]12 [drawing 90]
[1]
  G6PDH Inhibition relative to DHEA: 0.5 ×
[2]
  Inhibition of TPA Effect on Epidermis Following Oral Administration, relative to DHEA: 1-1.5 ×

## CCCC[C@H]1CC[C@@]2(C)C(=CC[C@@H]3[C@@H]2CC[C@]2(C)C(=O)CC[C@@H]32)C1 [Compound 17]
[1]; Conc. 0.1 μm
  inhibition at 0.1 µM: 49%
[1]; Conc. 1 μm
  inhibition at 1 µM: 45%
[1]; Conc. 10 μm
  inhibition at 10 µM: 60%

## C[C@]12CCCC[C@@H]1CC[C@@H]1[C@@H]2CC[C@]2(C)C(=O)CC[C@@H]12 [drawing 86]
[1]
  G6PDH Inhibition relative to DHEA: > 2 ×
[2]
  Inhibition of TPA Effect on Epidermis Following Oral Administration, relative to DHEA: ~ 1.5 ×

## CC1(C)C2=CC[C@@H]3[C@H](CC[C@]4(C)C(=O)CC[C@@H]34)[C@@]2(C)CC[C@@H]1O [Compound 12]
[1]; Conc. 10 μm
  inhibition at 10 µM: 48%

## C[C@]12CC[C@H](Cl)CC1=CC[C@@H]1[C@@H]2CC[C@]2(C)C(=O)CC[C@@H]12 [drawing 100]
[3]
  Anti-obesity Activity relative to DHEA: ~ 1 ×

## CC1=C2C[C@@H](O)CC[C@]2(C)[C@H]2CC[C@]3(C)C(=O)CC[C@H]3[C@@H]2C1 [Compound 18]
[1]; Conc. 0.1 μm
  inhibition at 0.1 µM: 10%
[1]; Conc. 1 μm
  inhibition at 1 µM: 18%
[1]; Conc. 10 μm
  inhibition at 10 µM: 45%

## C[C@H]1CC[C@@]2(C)C(=CC[C@@H]3[C@@H]2CC[C@]2(C)C(=O)[C@H](O)C[C@@H]32)C1 [drawing 98]
[3]
  Anti-obesity Activity relative to DHEA: ~ 0.8 ×

## C[C@]12CCCCC1=CC[C@@H]1[C@@H]2CC[C@]2(C)C(=O)CC[C@@H]12 [Compound 14]
[1]; Conc. 1 μm
  inhibition at 1 µM: 30%
[1]; Conc. 10 μm
  inhibition at 10 µM: 75%

## CCCC[C@H]1CC[C@@]2(C)C(=CC[C@@H]3[C@@H]2CC[C@]2(C)C(=O)CC[C@@H]32)C1 [drawing 92]
[1]
  G6PDH Inhibition relative to DHEA: ~ 2 ×

## C[C@]12CC[C@H](O)C[C@@H]1CC[C@@H]1[C@@H]2CC[C@]2(C)C(=O)[C@H](F)C[C@@H]12 [Compound 8]
[1]; Conc. 10 μm
  inhibition at 10 µM: 66%

## C[C@H]1CC[C@@]2(C)C(=CC[C@@H]3[C@@H]2CC[C@]2(C)C(=O)CC[C@@H]32)C1 [drawing 102]
[4]
  Anti-diabetic Activity relative to DHEA: 3 ×

## C[C@H]1CC[C@@]2(C)C(=CC[C@@H]3[C@@H]2CC[C@]2(C)C(=O)CC[C@@H]32)C1 [drawing 97]
[3]
  Anti-obesity Activity relative to DHEA: ~ 3 ×

## C[C@@H]1[C@H](O)CC[C@@]2(C)[C@H]1CC[C@@H]1[C@@H]2CC[C@]2(C)C(=O)CC[C@@H]12 [Compound 11]
[1]; Conc. 10 μm
  inhibition at 10 µM: 35%

## C[C@H]1CC[C@@]2(C)C(=CC[C@@H]3[C@@H]2CC[C@]2(C)C(=O)[C@H](C)C[C@@H]32)C1 [drawing 99]
[3]
  Anti-obesity Activity relative to DHEA: ~ 1 ×

## C[C@]12CC[C@H](O)C[C@@H]1CC[C@@H]1[C@@H]2CC[C@]2(C)C(=O)CC[C@@H]12 [drawing 85]
[1]
  G6PDH Inhibition relative to DHEA: ~ 1.5 ×
[2]
  Inhibition of TPA Effect on Epidermis Following Oral Administration, relative to DHEA: ~ 1 ×

## C[C@]12CC[C@@H](O)C[C@@H]1CC[C@@H]1[C@@H]2CC[C@]2(C)C(=O)CC[C@@H]12 [Compound 10]
[1]; Conc. 10 μm
  inhibition at 10 µM: 35%

## C[C@]12CC[C@H](O)C[C@@H]1CC[C@@H]1[C@@H]2CC[C@]2(C)C(=O)[C@H](Br)C[C@@H]12 [Compound 4]
[1]; Conc. 10 μm
  inhibition at 10 µM: 90%

## C[C@]12CC[C@H](F)CC1=CC[C@@H]1[C@@H]2CC[C@]2(C)C(=O)CC[C@@H]12 [Compound 9]
[1]; Conc. 10 μm
  inhibition at 10 µM: 22%

## CC[C@H]1CC[C@@]2(C)C(=CC[C@@H]3[C@@H]2CC[C@]2(C)C(=O)CC[C@@H]32)C1 [Compound 13]
[1]; Conc. 0.1 μm
  inhibition at 0.1 µM: 58%
[1]; Conc. 1 μm
  inhibition at 1 µM: 55%
[1]; Conc. 10 μm
  inhibition at 10 µM: 73%

## C[C@]12CC[C@H](O)CC1=CC[C@@H]1[C@@H]2CC[C@]2(C)C(=O)[C@H](Br)C[C@@H]12 [Compound 5]
[1]; Conc. 10 μm
  inhibition at 10 µM: 74%

## C[C@]12CC[C@H](Cl)CC1=CC[C@@H]1[C@@H]2CC[C@]2(C)C(=O)CC[C@@H]12 [drawing 103]
[4]
  Anti-diabetic Activity relative to DHEA: 1 ×

## C[C@H]1CC[C@@]2(C)C(=CC[C@@H]3[C@@H]2CC[C@]2(C)C(=O)[C@H](F)C[C@@H]32)C1 [drawing 94]
[1]
  G6PDH Inhibition relative to DHEA: 5-10 ×
[2]
  Inhibition of TPA Effect on Epidermis Following Oral Administration, relative to DHEA: > 10 ×

## C[C@@H]1C[C@@]2(C)C(=CC[C@@H]3[C@@H]2CC[C@]2(C)C(=O)CC[C@@H]32)C[C@H]1O
[1]
  G6PDH Inhibition relative to DHEA: ~ 1 ×

## C[C@H]1CC[C@@]2(C)C(=CC[C@@H]3[C@@H]2CC[C@]2(C)C(=O)[C@](C)(F)C[C@@H]32)C1 [Compound 22]
[1]; Conc. 1 μm
  inhibition at 1 µM: 53%
[1]; Conc. 10 μm
  inhibition at 10 µM: 65%

## C[C@H]1CC[C@@]2(C)C(=CC[C@@H]3[C@@H]2CC[C@]2(C)C(=O)[C@H](O)C[C@@H]32)C1 [drawing 89]
[1]
  G6PDH Inhibition relative to DHEA: ~ 2 ×
[2]
  Inhibition of TPA Effect on Epidermis Following Oral Administration, relative to DHEA: 5 ×

## C[C@]12CCCC[C@@H]1CC[C@@H]1[C@@H]2CC[C@]2(C)C(=O)CC[C@@H]12 [drawing 96]
[3]
  Anti-obesity Activity relative to DHEA: ~ 0.5 ×

## C[C@]12CC[C@H](O)C[C@@H]1CC[C@@H]1[C@@H]2CC[C@]2(C)C(=O)[C@H](I)C[C@@H]12 [Compound 7]
[1]; Conc. 10 μm
  inhibition at 10 µM: 51%

## CC[C@H]1CC[C@@]2(C)C(=CC[C@@H]3[C@@H]2CC[C@]2(C)C(=O)CC[C@@H]32)C1 [drawing 101]
[3]
  Anti-obesity Activity relative to DHEA: ~ 0.5 ×

## C[C@]12CC[C@H](O)C[C@@H]1CC[C@@H]1[C@@H]2CC[C@]2(C)C(=O)CC[C@@H]12 [drawing 95]
[3]
  Anti-obesity Activity relative to DHEA: ~ 0.5 ×

## C[C@H]1C2=CC[C@@H]3[C@H](CC[C@]4(C)C(=O)CC[C@@H]34)[C@@]2(C)CC[C@@H]1O [Compound 11a]
[1]; Conc. 1 μm
  inhibition at 1 µM: 72%
[1]; Conc. 10 μm
  inhibition at 10 µM: 87%

## Androst-5-en-17-one [Compound 15, reference compound]
[1]; Conc. 0.1 μm
  Percent Inhibition (G6PDH): 26%
[1]; Conc. 1 μm
  Percent Inhibition (G6PDH): 40%
[1]; Conc. 10 μm
  Percent Inhibition (G6PDH): 46%

## C[C@]12CC[C@H](O)C[C@@H]1CC[C@@H]1[C@@H]2CC[C@]2(C)C(=O)[C@H](Cl)C[C@@H]12 [Compound 6]
[1]; Conc. 10 μm
  inhibition at 10 µM: 72%

## C[C@H]1CC[C@@]2(C)C(=CC[C@@H]3[C@@H]2CC[C@]2(C)C(=O)[C@H](C)C[C@@H]32)C1 [drawing 88]
[1]
  G6PDH Inhibition relative to DHEA: ~ 0.5 ×

## CC[C@H]1CC[C@@]2(C)C(=CC[C@@H]3[C@@H]2CC[C@]2(C)C(=O)CC[C@@H]32)C1 [drawing 91]
[1]
  G6PDH Inhibition relative to DHEA: ~ 1.5 ×
